The pEC50 is the negative decadic logarithm of the EC50, by convention in mol/L. A higher pEC50 goes with a low EC50.

Molecules are shown by their SMILES. pEC50: −log10 of the molar value.

The source of these data is BindingDB's records for doi:10.7270/Q2TB15DB (Burnham Center For Chemical Genomics, 2011).

The experiment deals with T1, Endoribonuclease toxin MazF (Escherichia coli (strain K12), UniProt P0AE70).
T1 sequence (P0AE70 whole entry): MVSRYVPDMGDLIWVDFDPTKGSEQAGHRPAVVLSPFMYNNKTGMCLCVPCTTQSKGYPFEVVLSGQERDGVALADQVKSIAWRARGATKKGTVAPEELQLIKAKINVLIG
Kind of experiment: fluorescent RNA oligo signal without MazF, dose response, counter-screen for MazEF activator project, biochemical, fluorescence, single-stranded RNase substrate (AID 588502). (A counterscreen serves to expose hits that act by an unwanted route or on another target.)

As for `CCC(N=Nc1cccc(C)c1)c1cnnc(SC)n1` (stereo not given) [MLS000705906], the pEC50 was < 4.00.
To `C=c1[nH]n(-c2ccccc2)c(=O)c1=Cc1cc(C)n(C2CC2)c1C` [MLS001018445] belongs < 4.00; to `CCSc1nnc(N2C(=O)C(=O)C(C(=O)c3ccco3)C2c2cccc(OC)c2)s1` (stereo not given) [MLS001140620], < 4.00.
To `O=[N+]([O-])c1cc/c(=N\c2ccccc2O)c2no[nH]c1-2` [MLS001206694] belongs < 4.00; to `Oc1ccc2ccccc2c1C=Nn1c(O)csc1=S` [MLS002707175], < 4.00; to `O=[N+]([O-])c1ccc(N=NCc2ccc3c(c2)OCO3)nc1` [N-(1,3-benzodioxol-5-ylmethylideneamino)-5-nitro-pyridin-2-amine], < 4.00.
`O=[N+]([O-])c1ccc(N=NCc2cccc3ccccc23)nc1` [N-(naphthalen-1-ylmethylideneamino)-5-nitro-pyridin-2-amine] showed a negative logarithm of the EC50 (pEC50) of 4.34.
To `CCN(CC)c1ccc(CN=Nc2ccc([N+](=O)[O-])cn2)cc1` [N-[[4-(diethylamino)phenyl]methylideneamino]-5-nitro-pyridin-2-amine] belongs 4.15; to `Cc1ccc(C2=Nc3nnnn3C(c3ccc(N(C)C)cc3)C2)cc1` (stereo not given) [SMR000092467], < 4.00; to `COc1ccc(C=C2CCCC(C(=O)C(F)(F)F)C2=O)cc1` (stereo not given) [SMR000142699], 4.47.
To `Cc1[nH]c2ccccc2c1/C=C1\N=C(c2ccc(C(F)(F)F)cc2)OC1=O` [SMR000152363] belongs < 4.00; to `O=C(c1ccc2ccccc2n1)c1[nH][nH]c2c(O)n(-c3cccc(C(F)(F)F)c3)c(=O)c1-2` [SMR000212847], < 4.00; to `Cc1ccc(S(=O)(=O)N[N-][C+]2CCC(C(C)(C)C)CC2)cc1[N+](=O)[O-]` [SMR000241764], < 4.00.
To `COc1ccc(N=CCC(=O)c2ccc(C)cc2)cc1OC` [SMR000269732] belongs 4.60; to `COc1cc(C2c3c(-c4cccs4)n[nH]c3OC(=N)C2C#N)cc(OC)c1O` (stereo not given) [SMR000275523], 4.88.
`CC1(C)CC(=O)C(N=Nc2cc3c(cc2[N+](=O)[O-])OCCO3)C(=O)C1` [SMR000348183] had a negative logarithm of the EC50 (pEC50) of 4.53.
`O=C1N=c2ccc(Br)cc2=C1NNc1ccc(F)cc1` [SMR000564049] gave a negative-log EC50 (pEC50) of 4.34.
To `CSc1nnc(N2C(=O)C(=O)C(C(=O)c3ccc(C)o3)C2c2ccc(C)cc2)s1` (stereo not given) [SMR000650392] belongs < 4.00.
To `CCN1C(=O)C(C=NN=Cc2ccccc2)c2ccc(C3=NNC(=O)CC3)cc21` (stereo not given) [benzaldehyde {[1-ethyl-2-oxo-6-(6-oxo-1,4,5,6-tetrahydro-3-pyridazinyl)-1,2-dihydro-3H-indol-3-ylidene]methyl}hydrazone] belongs < 4.00; to `CCOC(=O)c1c(NC=C2C(=O)NC(=O)NC2=O)sc2c1CCC2` [ethyl 2-{[(1E)-(2,4,6-trioxohexahydropyrimidin-5-yl)methylene]amino}-5,6-dihydro-4H-cyclopenta[b]thiophene-3-carboxylate], < 4.00.
